Data reported in US12251411B2, “Methods of treating endometrial cancer using hemp extract” (Ecofibre USA Inc., priority 2021, dated 2025).
Values after ≈ are worked out from the molar mass of the structure shown. Like-named read-outs stand apart in the source and are kept apart here.

Key:
[1] = tested on: endometrial cancer; assay: Case of a patient with stage IV chemoresistant metastatic endometrial cancer (PET/CT follow up)
Source text: Soon after the experiments detailed above a person came to us. They were diagnosed with endometrial cancer after presenting with significant pain and discomfort. They had already undergone a total hysterectomy and bilateral salpingo-oophorectomy followed by five rounds of chemotherapy. Each of the first five rounds of chemotherapy was a combined chemotherapy with Paclitaxil/Carboplatin.
See, Tables 3 and 4, below. […] As such, […] began standard protocol GemCap treatment in combination with a regime of 30 mg of BSHE twice daily via oral mucosal delivery and 75 mg of FSHE once daily via intravaginal delivery.

[2] = tested on: endometrial cancer patient derived organoids; assay: Viability of patient-derived endometrial cancer organoids treated with cannabis extracts (CellTiter-Glo); conditions: for IC50: Homo sapiens; for viable organoids in words: 7 and 10 μg/mL
Description: For this set of experiments, we obtained tissue samples from a new set of 12 patients, each having grade 1, grade 2, or grade 3 endometrial cancer. Cells from these patients were prepared as described in the Methods section below.
(§1) Individual patient cell organoids were cultured separately in different plates.
(§2) The same IC50 dose was given with each incremental dose of chemotherapeutic agent.

[3] = tested on: patient derived endometrial cancer tumors; assay: Patient-derived xenograft mice: change in endometrial cancer tumor volume with cannabis extracts alone; format: in vivo; conditions: for decrease in average tumor volume vs day 0: day 10
Description: Generally, EC stem cells from the same patients that participated in the organoid studies of FIG. 7, were injected into the mice, and allowed to grow. After tumors reached a certain size, the mice were either injected (3 times/week) with the extract-delivery vehicle or with the particular cannabis extract. After a certain amount of time elapsed, tumor size was measured. The details regarding patient-derived xenograft methodology and experimental protocol are provided in the Methods section.
The % change is an average number taken from tumor volumes of three mice compared to the starting average tumor volume on day 0 of treatment. Change can either be positive (tumor increases in size) or negative (tumor decreases in size).
(§3) Human patient cells from endometrial cancer were injected subcutaneously into female NOD/SCID gamma mice after resuspending in 100 μL solution. […] Tumor size was measured before treatment, followed by twice a week measurements. All treatment group mice were kept alive for up to 10 weeks after drug injection or until the tumor volume grows bigger than 2500 mm^3.

[4] = tested on: patient derived endometrial cancer organoids; assay: Patient-derived endometrial cancer organoid viability: chemotherapeutic agent alone or with IC50 dose of cannabis extract
Description: To perform these experiments, we used cells from patient 4 (see, e.g., FIGS. 7A and 7C) to test grade 2 endometrial cancer and cells from patient 12 (see, e.g., FIGS. 7B-7D) to test grade 3 endometrial cancer. […] Methods concerning producing organoids from human tissue samples are provided in the Methods section at the end of this document.
as §1, §2

[5] = tested on: organoids derived from ovarian cancer tissue; assay: Impact of pH on viability of ovarian cancer organoids treated with cannabis extracts; format: cell-based; conditions: 10 μg/mL; pH 8
Source text: In this set of experiments, organoids were derived from ovarian cancer tissue.

[6] = target: P-glycoprotein (Homo sapiens, UniProt P08183); conditions: in vitro; cited from earlier work
[7] = target: CYP2C19 (Homo sapiens, UniProt P33261); conditions: in vitro; cited from earlier work
[8] = cited from earlier work
[9] = cited from earlier work; remark: listed apart in the source
[10] = tested on: patient derived endometrial cancer tumors; assay: Patient-derived xenograft mice: tumor volume with paclitaxel alone or combined with cannabis extract; format: in vivo
Description: as §3

[11] = tested on: patient derived organoids; format: cell-based, human; conditions: % of cells that died compared to control; organoids of the chemoresistant patient
Description: In addition to the agents listed above, several other drugs were tested to see if they influenced organoid growth. In this case, results are shown as the % of cells that died compared to control. […] This is consistent with the patient's actual lack of response to treatment with paclitaxel.

[12] = tested on: patient derived organoids; assay: Calculated IC50 of various agents on organoids derived from the chemoresistant patient (PD3D cell culture); format: cell-based, human; conditions: Homo sapiens; organoids of the chemoresistant stage IV patient
Description: The IC50 values were calculated from such tests. This value indicates the dosage at which 50% of the organoids were killed due to treatment.

[13] = in vivo; cited from earlier work
[14] = tested on: organoids from the patient's endometrial cancer; assay: Response of organoids crafted from the patient's endometrial cancer to alternative chemotherapies and BSHE; format: cell-based, human; conditions: chemoresistant stage IV endometrial cancer patient
Source text: See, Tables 3 and 4, below.

[15] = read-out: IC50s for Patient 4 Organoids (Grade 2 Endometrial Cancer)
[16] = read-out: IC50s for Patient 12 Organoids (Grade 3 Endometrial Cancer)
[17] = day 14, 6 doses total of about 30 mg/kg
[18] = patient 4, carboplatin alone 250 μM/mL
[19] = before cannabis extract treatment

P-glycoprotein, sequence (P08183 whole entry): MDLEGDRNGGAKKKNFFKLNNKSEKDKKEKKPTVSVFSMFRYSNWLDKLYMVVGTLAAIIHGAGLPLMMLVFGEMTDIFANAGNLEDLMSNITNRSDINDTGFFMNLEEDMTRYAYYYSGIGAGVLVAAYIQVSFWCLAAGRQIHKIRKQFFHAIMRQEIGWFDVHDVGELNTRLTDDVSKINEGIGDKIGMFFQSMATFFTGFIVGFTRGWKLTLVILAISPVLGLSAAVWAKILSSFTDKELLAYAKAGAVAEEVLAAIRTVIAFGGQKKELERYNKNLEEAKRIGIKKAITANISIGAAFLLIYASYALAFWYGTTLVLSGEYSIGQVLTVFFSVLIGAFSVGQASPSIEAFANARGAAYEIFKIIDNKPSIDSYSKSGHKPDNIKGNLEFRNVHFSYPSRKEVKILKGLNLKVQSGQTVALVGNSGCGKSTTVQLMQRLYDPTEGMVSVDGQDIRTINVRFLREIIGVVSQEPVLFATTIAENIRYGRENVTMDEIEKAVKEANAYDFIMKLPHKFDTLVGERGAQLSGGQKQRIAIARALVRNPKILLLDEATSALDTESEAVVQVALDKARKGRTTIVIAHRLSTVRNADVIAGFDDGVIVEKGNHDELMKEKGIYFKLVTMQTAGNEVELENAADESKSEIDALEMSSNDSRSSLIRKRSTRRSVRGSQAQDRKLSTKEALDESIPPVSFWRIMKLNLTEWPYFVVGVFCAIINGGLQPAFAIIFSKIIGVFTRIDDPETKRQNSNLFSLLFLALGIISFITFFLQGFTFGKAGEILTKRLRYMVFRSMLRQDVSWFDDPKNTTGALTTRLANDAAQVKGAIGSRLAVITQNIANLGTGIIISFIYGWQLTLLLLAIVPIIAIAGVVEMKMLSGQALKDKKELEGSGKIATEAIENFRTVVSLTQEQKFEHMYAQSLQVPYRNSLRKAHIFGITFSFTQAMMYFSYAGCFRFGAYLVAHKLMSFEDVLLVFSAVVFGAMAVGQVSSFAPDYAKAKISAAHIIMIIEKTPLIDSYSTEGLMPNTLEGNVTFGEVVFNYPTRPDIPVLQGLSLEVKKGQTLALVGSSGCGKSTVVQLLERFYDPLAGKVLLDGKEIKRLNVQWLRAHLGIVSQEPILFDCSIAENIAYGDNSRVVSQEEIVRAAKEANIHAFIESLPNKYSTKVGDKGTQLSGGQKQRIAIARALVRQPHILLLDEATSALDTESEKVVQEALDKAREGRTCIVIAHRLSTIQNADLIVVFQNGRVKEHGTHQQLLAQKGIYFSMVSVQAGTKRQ
CYP2C19, sequence (P33261 whole entry, species assumed): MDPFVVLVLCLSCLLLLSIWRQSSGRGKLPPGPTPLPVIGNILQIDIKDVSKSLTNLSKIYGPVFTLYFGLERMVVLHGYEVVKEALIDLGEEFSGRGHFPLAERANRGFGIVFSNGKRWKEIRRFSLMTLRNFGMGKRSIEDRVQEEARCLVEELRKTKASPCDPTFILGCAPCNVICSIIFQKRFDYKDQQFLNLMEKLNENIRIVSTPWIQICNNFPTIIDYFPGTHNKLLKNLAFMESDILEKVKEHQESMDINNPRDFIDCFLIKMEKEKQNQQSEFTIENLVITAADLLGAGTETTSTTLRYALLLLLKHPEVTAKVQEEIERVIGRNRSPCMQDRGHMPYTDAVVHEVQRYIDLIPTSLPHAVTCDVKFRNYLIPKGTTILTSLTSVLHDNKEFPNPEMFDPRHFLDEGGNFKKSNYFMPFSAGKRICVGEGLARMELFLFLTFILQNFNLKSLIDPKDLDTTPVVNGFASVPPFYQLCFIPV

CCN1CCN(Cc2ccc(Nc3ncc(F)c(-c4cc(F)c5nc(C)n(C(C)C)c5c4)n3)nc2)CC1 [Abemaciclib]
adverse effects of the patient's earlier treatment ([1]; human, in vivo): severe adverse effects

C=C(C)[C@@H]1CCC(C)=C[C@H]1c1c(O)cc(CCCCC)cc1O [CBD isolate, cannabidiol]
IC50 [2, 15]: 3.09 µg/mL (≈ 9.83 µM) | IC50 [2, 16]: 2.92 µg/mL (≈ 9.29 µM) | IC50 ([2]; read-out: dose at which 50% viability of organoids was obtained): ~3 µg/mL (≈ 9.54 µM) | viable organoids / response in words ([2]; grade 1, 10 μg/mL): does not show complete response | response of organoids ([2]; grade 1 lower responder patient, 15 and 20 μg/mL): complete response | viable organoids in words ([2]; grade 2): virtually zero | viable organoids in words ([2]; grade 3): virtually zero | dose at which 50% viability of organoids was obtained ([2]; grade 3 representative sample (FIG. 7)): about 3 μg/mL | decrease in average tumor volume vs day 0 ([3]; about 30 mg/kg, 3 times/week): not as responsive | decrease in average tumor volume compared to starting size [3, 17]: less than 50% | decrease in viable organoids compared to carboplatin alone ([4]; patient 4, IC50 dose of extract + 100 μM/mL carboplatin): about 32% | decrease in the % of viable organoids when 4 nM/mL paclitaxel is combined with extract ([4]; patient 12, grade 3, IC50 dose of extract + 4 nM/mL paclitaxel): up to 19% | efficacy compared to native pH [5]: virtually no change | P-glycoprotein-mediated drug transport [6]: significantly inhibits | inhibition of CYP2C19 enzymes [7]: potent inhibitor | dose with clinically significant drug interactions ([8]; current literature): 20 mg/kg/day | doses established as well tolerated ([8]; humans, chronic use): up to 1,500 mg/day | dose with meaningful interactions with Warfarin ([8]; published case study): 10 mg/kg | effect on peak plasma drug concentrations ([9]; coadministration of ketoconazole (CYP3A4 inhibitor)): nearly doubled | effect on peak plasma concentrations ([9]; coadministration of rifampicin (CYP3A4 inducer)): significantly reduced | increase of Cmax ([9]; coadministration with high fat food): up to 5 fold | Tmax ([9]; delivery via nasal mucosa): approximately 10 minutes | maximum plasma concentration (time) ([9]; oral): 2.5 to 5 h | maximum plasma concentration (time), delayed in some individuals ([9]; oral): up to 6 hours | serum bioavailability ([9]; orally delivered, consumed with CBDA): increase substantially | maximum plasma concentration (time) ([9]; oromucosal or sublingual delivery): 1.6 h | bioavailability ([9]; rectal suppository delivery): 51-60%

C=C(C)[C@@H]1CCC(C)=C[C@H]1c1c(O)cc(CCCCC)c(C(=O)O)c1O [CBDA, cannabidiolic acid]
response of organoids ([2]; 10 and 15 μg/mL): a strong response was not seen in all patient derived organoids | IC50 [2, 15]: 12.1 µg/mL (≈ 33.6 µM) | IC50 [2, 16]: 15.8 µg/mL (≈ 44.1 µM) | formation of viable organoids ([2]; all patients, dosing up to 50 μg/mL): ~0% | effect on organoid viability ([2]; lower doses): did not affect organoid viability | increase in average tumor volume vs day 0 ([3]; day 7, 3 doses of about 30 mg/kg, injected 3 times/week): greater than 30% | overall decrease in average tumor volume in three days ([3]; day 7 to day 10, about 30 mg/kg, 3 times/week): greater than 60% | decrease in average tumor volume vs day 0 ([3]; about 30 mg/kg, 3 times/week): greater than 30% | decrease in average tumor volume compared to starting size [3, 17]: 70% | decrease in average tumor volume compared to starting size ([3]; day 21, 9 doses total of about 30 mg/kg): ~100% | increase in average tumor volume ([10]; a few days before day 14, extract 30 mg/kg + paclitaxel 10 mg/kg): ~40% | decrease in average tumor volume compared to paclitaxel alone ([10]; day 14, extract 30 mg/kg + paclitaxel 10 mg/kg): ~20% | bioavailability ([9]; consumed with other cannabinoids in FSHE vs equivalent dose of isolated CBDA): increased bioavailability

N.N.O=C([O-])C1(C(=O)[O-])CCC1.[Pt+2] [Carboplatin]
% Cell Death [11]: 30% | reduction of viable organoids ([4]; patient 4, carboplatin alone 50 μM/mL): about 50% | decrease in viability as compared to 50 μM/mL ([4]; patient 4, carboplatin alone 100 μM/mL): 2% | decrease in viability from that achieved at 50 μM/mL [4, 18]: 17% | organoid viability [4, 18]: about 32%

CC(=O)O[C@H]1C(=O)[C@@]2(C)[C@H]([C@H](OC(=O)c3ccccc3)[C@]3(O)C[C@H](OC(=O)[C@H](O)[C@@H](NC(=O)c4ccccc4)c4ccccc4)C(C)=C1C3(C)C)[C@]1(OC(C)=O)CO[C@@H]1C[C@@H]2O [Paclitaxel]
% Cell Death [11]: 39% | organoid viability ([4]; human, 9 days, 4 nM/mL): about 30% | improvement of 20 nM/mL over the lower dose (4 nM/mL) ([4]; patient 4, grade 2, paclitaxel alone): about 12% | improvement in reducing % viable organoids between 4 nM/mL and 20 nM/mL ([4]; patient 12, grade 3, paclitaxel alone): ~5% | decrease in tumor volume ([10]; paclitaxel alone 10 mg/kg, day 10): ~37% | further change of tumor volume ([10]; paclitaxel alone 10 mg/kg, day 10 to day 21): does not really change

CCCCCc1cc(O)c2c(c1)OC(C)(C)[C@@H]1CCC(C)=C[C@@H]21 [THC, Δ^9-tetrahydrocannabinol]
onset to reach peak plasma concentration ([9]; oral formulations): ~120 min

Cn1nnc2c(C(N)=O)ncn2c1=O [Temozolomide]
IC50 [12]: 106 µM | % Cell Death [11]: 40% | Cmax [13]: 37.6 µM

Atezolizumab
adverse effects of the patient's earlier treatment [1, 19]: severe adverse effects | outcome of the patient's earlier treatment [1, 19]: failed

Paclitaxil/Carboplatin
outcome of the patient's earlier treatment [1, 19]: ineffective

gemcitabine/capecitabine [GemCap]
response of the patient's organoids [14]: partial response
